Marks after values point to notes of the source that are not given here.
Experiments:
Type in all cases: in vivo
[1] = system: gene pathways in mouse brain (prefrontal cortex); assay: RNA sequencing of prefrontal cortex after supplemented metabolites: differentially expressed gene pathways; conditions: two weeks supplementation
Description: Transcriptomics data (RNA sequencing) was collected from the prefrontal cortex of 12-week old mice after consuming a low, medium, or high dosage of supplemented metabolites for two weeks. RNA sequencing used brain tissue to evaluate possible correlation between changes in relative changes in gene transcription with changes in behavior. The number of differentially expressed gene pathways at significance level of 0.05, 0.1, and 0.15 was determined (Table 1).

mice [2] = assay: Elevated plus maze (anxiogenic behavior); conditions: for EPM closed arms / EPM open arms: behavioral assay summary, Yes/No
Description: (§1) Mice were fed 80% of their total food as non-supplemented food (chow) for 4 days. For the next two weeks, mice were fed 80% of their total food as non-supplemented food and the remaining 20% was supplemented with selected metabolites(s). Mice were fed on food supplemented with various metabolites including 5-dodecacenoate (5D), glycodeoxycholate (GDC), ursodeoxycholate (UDC), or a control food lacking a supplement (CTL). Mouse behavior was tested using an elevated plus maze (FIG. 13), a three-chamber sociability test, and tracking wheel usage. During testing, mice were fed 80% of their total food as non-supplemented food and the remaining 20% was supplemented with the selected metabolites(s).
Anxiogenic behavior was tested by tracking time spent in closed arms of an elevated plus maze. Control mice were fed food lacking a supplement.

mice [3] = assay: Habituation over three days (distance traveled, time in center, ambulatory time); conditions: for Habituation exploration / Habituation time in center: behavioral assay summary, Yes/No; for habituation: total distance traveled and exploratory activity: over three days
Description: as §1
Habituation over was tested with the […] (FIG. 16). […] Significance was tested with an ANOVA test.
Habituation was measured by tracking the amount of time spent in the center of the chamber (FIG. 18).
Active time was also measured as total ambulatory time and center ambulatory time.

mice [4] = assay: Three-chamber sociability test; conditions: behavioral assay summary, Yes/No
Description: as §1
Additionally, the effect of supplementation with the metabolites on sociability was measured with a three-chamber sociability test (FIG. 21). This chamber tested for responses to social novelty.

mice [5] = assay: Mouse wheel distance traveled; conditions: for night-time activity: after administering metabolites
Description: as §1
Lastly, mice fed with food supplemented with various metabolites were given a mouse wheel and distance traveled was tracked.

[6] = significance level 0.05, 12-week old mice
[7] = significance level 0.1, 12-week old mice
[8] = significance level 0.15, 12-week old mice
[9] = treatment average vs 5D Average
[10] = treatment average vs Control Average

| SMILES | Differentially Expressed Gene Pathways in Mouse Brain [1, 6] | Differentially Expressed Gene Pathways in Mouse Brain [1, 7] | Differentially Expressed Gene Pathways in Mouse Brain [1, 8] | EPM closed arms (mice [2]) | EPM open arms (mice [2]) | time spent in closed arms of elevated plus maze (mice [2]; vs control mice) | Habituation exploration (mice [3]) | Habituation time in center (mice [3]) | habituation: total distance traveled and exploratory activity (mice [3]) | Sociability (mice [4]) | night-time activity (mice [5]) | Adjusted p value, comparison of average distance traveled (mice [5]; [9]) | Adjusted p value, comparison of average distance traveled (mice [5]; [10]) | active time in the closed arms of the maze (mice [2]; vs control mice) | Adjusted p value, comparison of average distance traveled (mice [5]; treatment average vs GDC Average) |
| --- | --- | --- | --- | --- | --- | --- | --- | --- | --- | --- | --- | --- | --- | --- | --- |
| CC(=O)N[C@@H](CCC(=O)O)C(=O)O [N-acetyl-L-glutamate] | 82 | 145 | 177 |  |  |  |  |  |  |  |  |  |  |  |  |
| C[C@H](CCC(=O)NCC(=O)O)[C@H]1CC[C@H]2[C@@H]3CC[C@@H]4C[C@H](O)CC[C@]4(C)[C@H]3C[C@H](O)[C@]12C [GDC, glycodeoxycholate] | 153 | 277 | 291 | No | No | did not spend significantly more time in closed arms than control mice | Yes | No | lower total distance traveled and exploratory activity over three days | No | night-time activity increased | 0.2762 | 0.0000114* |  |  |
| C[C@H](CCC(=O)O)[C@H]1CC[C@H]2[C@@H]3[C@@H](O)C[C@@H]4C[C@H](O)CC[C@]4(C)[C@H]3CC[C@]12C [UDC, ursodeoxycholate] | 0 | 0 | 104 | Yes | No | spent less time in the closed arms of the maze | No | No | did not decrease the total distance traveled on day three compared to day two | No | night-time activity increased | 0.00000000 | 0.00000000* | lower active time in the closed arms of the maze than control mice | 0.0000141 |
| N[C@@H](CCC(=O)O)C(=O)O [Glutamate, glutamate] | 0 | 0 | 107 |  |  |  |  |  |  |  |  |  |  |  |  |
